{
  "source": "patent US8933122B2",
  "about": "“Use of cationic surfactants as sporicidal agents” (Laboratorios Miret, S.A., priority 2008, dated 2015)",
  "key": {"[1]": {"tested_on": "Pseudomonas aeruginosa ATCC 9027", "settings": "Gram − Bacteria; cited from earlier work"}, "[2]": {"tested_on": "Candida albicans ATCC 10231", "settings": "Yeast; cited from earlier work"}, "[3]": {"tested_on": "Bordetella bronchiseptica ATCC 4617", "settings": "Gram − Bacteria; cited from earlier work"}, "[4]": {"tested_on": "Arthrobacter oxydans ATCC 8010", "settings": "Gram + Bacteria; cited from earlier work"}, "[5]": {"tested_on": "Serratia marcenses CECT 274", "settings": "Gram − Bacteria; cited from earlier work"}, "[6]": {"tested_on": "endospores from Thermoanaerobacterium thermosaccharolyticum ATCC 7956", "assay": "Sporicidal activity, quantitative suspension test EN 13704:2002 (Example 4)", "type": "cell-based", "settings": "20° C.; for calculated reduction R=N×0.1/Na: 60 minutes; for Test of LAE sporicidal activity (Na), surviving spores count: water as interfering substance, N 0.65 × 10^6 cfu/mL", "protocol": "(§1) The determination of the sporicidal activity of LAE has been carried out according to the European standard EN 13704:2002: “Chemical disinfectant—Quantitative suspension test for the evaluation of sporicidal activity of chemical disinfectants used in food, industrial, domestic and institutional areas—Test method and requirements”.\n(§2) A test suspension containing endospores from Thermoanaerobacterium thermosaccharolyticum ATCC 7956 was prepared from a culture grown on a nutrient agar, to which additional sporulation enhancement ingredients were added. Plates were harvested with sterile water and endospores were purified by repeated centrifugations and resuspensions in water.\n(§3) Neutralizer. The neutralizer mixture consisted of 30 g/L polysorbate 80 in water. The solution was intended to neutralize any chemicals so that these would not affect subsequent growth of the bacteria.\nThe sporicidal activity of a given product is defined by its capacity to reduce at least by 10^3 the amount of Thermoanaerobacterium thermosaccharolyticum bacterial spores in suspension, in the conditions established in the method.\n(§4) The product was in contact with a suspension of bacterial spores during an established period of time of 60 minutes. An interfering substance can be added to the suspension, in this case water. Next, the effect of the product is neutralized by adding a neutralizer previously chosen, preceding to the surviving spores count.\n(§5) • 1. Spore suspension obtained from a spored-form culture of Thermoanaerobacterium thermosaccharolyticum. • 2. Count of the spore suspension of Thermoanaerobacterium thermosaccharolyticum. • 3. The possible toxic effect of the neutralizer on the spores in the absence of the product is valued. • 4. Validation of the dilution-neutralisation method. • 5. Evaluation of the inhibitory sporicide effect of the product. • 6. Result calculation. Results: Results are expressed as the reduction of viability of the spore suspension in regards to:\nTabulation of the Method and Test Validation Results (at 20° C.):\nA product is considered sporicidal if its use results in a reduction (R) in the number of Thermoanaerobacterium thermosaccharolyticum bacterial spores equal to or above 10^3 after being in contact for 60 minutes in the conditions set in EN 13704:2002."}, "[7]": {"tested_on": "Penicillium chrysogenum CECT 2802", "settings": "Fungi; cited from earlier work"}, "[8]": {"tested_on": "Bacillus subtilis ATCC 6633", "settings": "Gram + Bacteria; cited from earlier work"}, "[9]": {"tested_on": "Chaetonium globosum ATCC 6205", "settings": "Fungi; cited from earlier work"}, "[10]": {"tested_on": "Citrobacter freundii ATCC 22636", "settings": "Gram − Bacteria; cited from earlier work"}, "[11]": {"tested_on": "Bacillus cereus var mycoide ATCC 11778", "settings": "Gram + Bacteria; cited from earlier work"}, "[12]": {"tested_on": "Rhodotorula rubra CECT 1158", "settings": "Yeast; cited from earlier work"}, "[13]": {"tested_on": "endospores from Geobacillus stearothermophilus ATCC 12980", "assay": "Sporicidal activity, quantitative suspension test EN 13704:2002 (Example 3)", "type": "cell-based", "settings": "40° C.; for calculated reduction (R) R=N×0.1/Na: 60 minutes; for Test of LAE sporicidal activity (Na), surviving spores count: water as interfering substance, N 1.3 × 10^6 cfu/mL", "protocol": "as §1\nas §2, with “Geobacillus stearothermophilus” for “Thermoanaerobacterium thermosaccharolyticum”, “12980” for “7956”\nas §3\nThe sporicidal activity of a given product is defined by its capacity to reduce at least by 10^3 the amount of Geobacillus stearothermophilus bacterial spores in suspension, in the conditions established in the method.\nas §4\nas §5, with “culture of Geobacillus stearothermophilus • 2.” for “culture of Thermoanaerobacterium thermosaccharolyticum. • 2.”, “suspension of Geobacillus stearothermophilus. • 3.” for “suspension of Thermoanaerobacterium thermosaccharolyticum. • 3.”\nTabulation of the Method and Test Validation Results (at 40° C.): […]"}, "[14]": {"tested_on": "Klebsiella pneumoniae var pneumoniae CECT 178", "settings": "Gram − Bacteria; cited from earlier work"}, "[15]": {"settings": "rats; cited from earlier work"}, "[16]": {"tested_on": "Escherichia coli ATCC 8739", "settings": "Gram − Bacteria; cited from earlier work"}, "[17]": {"settings": "animals and humans; cited from earlier work"}, "[18]": {"tested_on": "Enterobacter aerogenes CECT 689", "settings": "Gram − Bacteria; cited from earlier work"}, "[19]": {"tested_on": "Saccharomyces cerevisiae ATCC 9763", "settings": "Yeast; cited from earlier work"}, "[20]": {"tested_on": "Aspergillus niger ATCC 14604", "settings": "Fungi; cited from earlier work"}, "[21]": {"tested_on": "Alcaligenes faecalis ATCC 8750", "settings": "Gram − Bacteria; cited from earlier work"}, "[22]": {"tested_on": "Aureobasidium pullulans ATCC 9348", "settings": "Fungi; cited from earlier work"}, "[23]": {"settings": "human beings; cited from earlier work"}, "[24]": {"tested_on": "Staphylococcus aureus ATCC 6538", "settings": "Gram + Bacteria; cited from earlier work"}, "[25]": {"settings": "60 minutes contact, EN 13704:2002"}},
  "data": [
    {"compound": "CCCCCCCCCCCC(=O)N[C@@H](CCCN=C(N)N)C(=O)OCC.Cl", "note": "[LAE, ethyl ester of the lauramide of the arginine monohydrochloride]", "values": [
      {"measurement": "M.I.C.", "setting": "[1]", "value": 64, "unit": "ppm"},
      {"measurement": "M.I.C.", "setting": "[2]", "value": 16, "unit": "ppm"},
      {"measurement": "M.I.C.", "setting": "[3]", "value": 128, "unit": "ppm"},
      {"measurement": "M.I.C.", "setting": "[4]", "value": 64, "unit": "ppm"},
      {"measurement": "M.I.C.", "setting": "[5]", "value": 32, "unit": "ppm"},
      {"measurement": "calculated reduction R=N×0.1/Na", "setting": "[6]; 32 μg/mL of LAE", "value": "< 10^3 cfu/mL"},
      {"measurement": "calculated reduction R=N×0.1/Na", "setting": "[6]; 51 μg/mL of LAE", "value": "< 10^3 cfu/mL"},
      {"measurement": "calculated reduction R=N×0.1/Na", "setting": "[6]; 102 μg/mL of LAE", "value": "> 10^3 cfu/mL"},
      {"measurement": "calculated reduction R=N×0.1/Na", "setting": "[6]; 205 μg/mL of LAE", "value": "> 10^3 cfu/mL"},
      {"measurement": "concentration displaying sporicidal activity (reduction equal to or above 10^3)", "setting": "[6]; [25]", "value": "≥ 102", "unit": "μg/mL"},
      {"measurement": "Test of LAE sporicidal activity (Na), surviving spores count", "setting": "[6]; LAE 32 μg/mL, 60 minutes contact", "value": "2.7 × 10^3 cfu/mL"},
      {"measurement": "Test of LAE sporicidal activity (Na), surviving spores count", "setting": "[6]; LAE 51 μg/mL, 60 minutes contact", "value": "1.6 × 10^3 cfu/mL"},
      {"measurement": "Test of LAE sporicidal activity (Na), surviving spores count", "setting": "[6]; LAE 102 μg/mL, 60 minutes contact", "value": "<10^2 cfu/mL"},
      {"measurement": "Test of LAE sporicidal activity (Na), surviving spores count", "setting": "[6]; LAE 205 μg/mL, 60 minutes contact", "value": "<10^2 cfu/mL"},
      {"measurement": "M.I.C.", "setting": "[7]", "value": 128, "unit": "ppm"},
      {"measurement": "M.I.C.", "setting": "[8]", "value": 16, "unit": "ppm"},
      {"measurement": "M.I.C.", "setting": "[9]", "value": 16, "unit": "ppm"},
      {"measurement": "M.I.C.", "setting": "[10]", "value": 64, "unit": "ppm"},
      {"measurement": "M.I.C.", "setting": "[11]", "value": 32, "unit": "ppm"},
      {"measurement": "M.I.C.", "setting": "[12]", "value": 16, "unit": "ppm"},
      {"measurement": "calculated reduction (R) R=N×0.1/Na", "setting": "[13]; 58 μg/ml of LAE", "value": "< 10^3 cfu/mL"},
      {"measurement": "calculated reduction (R) R=N×0.1/Na", "setting": "[13]; 115 μg/ml of LAE", "value": "< 10^3 cfu/mL"},
      {"measurement": "calculated reduction (R) R=N×0.1/Na", "setting": "[13]; 173 μg/ml of LAE", "value": "> 10^3 cfu/mL"},
      {"measurement": "calculated reduction (R) R=N×0.1/Na", "setting": "[13]; 230 μg/ml of LAE", "value": "> 10^3 cfu/mL"},
      {"measurement": "calculated reduction (R) R=N×0.1/Na", "setting": "[13]; 460 μg/ml of LAE", "value": "> 10^3 cfu/mL"},
      {"measurement": "concentration displaying sporicidal activity (reduction equal to or above 10^3)", "setting": "[13]; [25]", "value": "≥ 173", "unit": "μg/ml"},
      {"measurement": "Test of LAE sporicidal activity (Na), surviving spores count", "setting": "[13]; LAE 58 μg/mL, 60 minutes contact", "value": "1.0 × 10^5 cfu/mL"},
      {"measurement": "Test of LAE sporicidal activity (Na), surviving spores count", "setting": "[13]; LAE 115 μg/mL, 60 minutes contact", "value": "5.2 × 10^4 cfu/mL"},
      {"measurement": "Test of LAE sporicidal activity (Na), surviving spores count", "setting": "[13]; LAE 173 μg/mL, 60 minutes contact", "value": "<10^2 cfu/mL"},
      {"measurement": "Test of LAE sporicidal activity (Na), surviving spores count", "setting": "[13]; LAE 230 μg/mL, 60 minutes contact", "value": "<10^2 cfu/mL"},
      {"measurement": "Test of LAE sporicidal activity (Na), surviving spores count", "setting": "[13]; LAE 460 μg/mL, 60 minutes contact", "value": "<10^2 cfu/mL"},
      {"measurement": "M.I.C.", "setting": "[14]", "value": 32, "unit": "ppm"},
      {"measurement": "absorption and metabolism", "setting": "[15]", "value": "fast absorption and metabolization into naturally-occurring amino acids and the fatty acid lauric acid, which are eventually excreted as carbon dioxide and urea"},
      {"measurement": "M.I.C.", "setting": "[16]", "value": 32, "unit": "ppm"},
      {"measurement": "toxicological finding", "setting": "[17]", "value": "completely harmless to animals and humans"},
      {"measurement": "M.I.C.", "setting": "[18]", "value": 32, "unit": "ppm"},
      {"measurement": "M.I.C.", "setting": "[19]", "value": 32, "unit": "ppm"},
      {"measurement": "M.I.C.", "setting": "[20]", "value": 32, "unit": "ppm"},
      {"measurement": "M.I.C.", "setting": "[21]", "value": 64, "unit": "ppm"},
      {"measurement": "M.I.C.", "setting": "[22]", "value": 16, "unit": "ppm"},
      {"measurement": "tolerability and toxicity in practical use", "setting": "[23]", "value": "well tolerated and to display a very low toxicity to human beings"},
      {"measurement": "M.I.C.", "setting": "[24]", "value": 32, "unit": "ppm"}
    ]}
  ]
}
